Measured values: ChEMBL document CHEMBL3045992, “Antitumour activity of 5-[(2E)-1-(1H-benzimidazol-2-yl)-3-substituted phenylprop-2-en-1-ylidene] pyrimidine-2,4,6(1H,3H,5H)-triones against Daltons ascitic lymphoma in mice” (Med Chem Res, 2013)

Tests used:
[1] = tested on: Mus musculus; experiment: Acute toxicity in ip dosed albino Mus musculus (mouse) after 24 hr; format: organism-based; conditions: in vivo
[2] = Antitumor activity against Mus musculus (mouse) DLA cells transplanted in Swiss albino mouse assessed as increase in life span at 50 mg/kg, ip qd administered 24 hr post tumor transplantation for 14 days measured on day 14 (reference value: 50%); format: functional; conditions: route intraperitoneal
[3] = Antitumor activity against Mus musculus (mouse) DLA cells transplanted in Swiss albino mouse assessed as decrease in body weight at 50 mg/kg, ip qd administered 24 hr post tumor transplantation for 14 days measured on day 14 (reference value: 7.6 +/- 0.94 g); format: functional; conditions: route intraperitoneal
[4] = Antitumor activity against Mus musculus (mouse) DLA cells transplanted in Swiss albino mouse assessed as decrease in total WBC count measured 10^3 cells at 50 mg/kg, ip qd administered 24 hr post tumor transplantation for 14 days measured on day 14 (reference value: 14.40 +/- 2.5 ml); format: functional; parameters: unit not given here; conditions: route intraperitoneal
[5] = Antitumor activity against Mus musculus (mouse) DLA cells transplanted in Swiss albino mouse assessed as increase in haemoglobin level at 50 mg/kg, ip qd administered 24 hr post tumor transplantation for 14 days measured on day 14 (reference value: 7.12 +/- 0.95 g/dl); format: functional; conditions: route intraperitoneal
[6] = Antitumor activity against Mus musculus (mouse) DLA cells transplanted in Swiss albino mouse assessed as decrease in cholesterol level at 50 mg/kg, ip qd administered 24 hr post tumor transplantation for 14 days measured on day 14 (reference value: 140.86 +/- 4.6 mg/dl); format: functional; conditions: route intraperitoneal
[7] = Antitumor activity against Mus musculus (mouse) DLA cells transplanted in Swiss albino mouse assessed as increase in platelet count at 50 mg/kg, ip qd administered 24 hr post tumor transplantation for 14 days measured on day 14 (reference value: 1.6 +/- 0.52 lakhs/mm3); format: functional; conditions: route intraperitoneal
[8] = Antitumor activity against Mus musculus (mouse) DLA cells transplanted in Swiss albino mouse assessed as decrease in aspartate amino transferase level at 50 mg/kg, ip qd administered 24 hr post tumor transplantation for 14 days measured on day 14 (reference value: 85.6 +/- 2.72 U/L); format: functional; conditions: route intraperitoneal
[9] = Antitumor activity against Mus musculus (mouse) DLA cells transplanted in Swiss albino mouse assessed as decrease in triglyceride level at 50 mg/kg, ip qd administered 24 hr post tumor transplantation for 14 days measured on day 14 (reference value: 210.12 +/- 4.65 mg/dl); format: functional; conditions: route intraperitoneal
[10] = Antitumor activity against Mus musculus (mouse) DLA cells transplanted in Swiss albino mouse assessed as decrease in cancer cell count measured 10^6 cells at 50 mg/kg, ip qd administered 24 hr post tumor transplantation for 14 days measured on day 14 (reference value: 2.76 +/- 0.33 ml); format: functional, Cancer cell lines; conditions: route intraperitoneal
[11] = Antitumor activity against Mus musculus (mouse) DLA cells transplanted in Swiss albino mouse assessed as decrease in packed cell volume at 50 mg/kg, ip qd administered 24 hr post tumor transplantation for 14 days measured on day 14 (reference value: 30.55 +/- 3.52%); format: functional; parameters: scale not given: the % may be the effect or the level left; conditions: route intraperitoneal
[12] = Antitumor activity against Mus musculus (mouse) DLA cells transplanted in Swiss albino mouse assessed as decrease in alkaline phosphatase level at 50 mg/kg, ip qd administered 24 hr post tumor transplantation for 14 days measured on day 14 (reference value: 242.22 +/- 4.3 U/L); format: functional; conditions: route intraperitoneal
[13] = Antitumor activity against Mus musculus (mouse) DLA cells transplanted in Swiss albino mouse assessed as increase in RBC count at 50 mg/kg, ip qd administered 24 hr post tumor transplantation for 14 days measured on day 14 (reference value: 2.46 +/- 0.45 million/mm3); format: functional; conditions: route intraperitoneal
[14] = Antitumor activity against Mus musculus (mouse) DLA cells transplanted in Swiss albino mouse assessed as decrease in alanine amino transferase level at 50 mg/kg, ip qd administered 24 hr post tumor transplantation for 14 days measured on day 14 (reference value: 61.2 +/- 2.6 U/L); format: functional; conditions: route intraperitoneal
[15] = Antitumor activity against Mus musculus (mouse) DLA cells transplanted in Swiss albino mouse assessed as increase in haemoglobin level at 20 mg/kg, ip qd administered 24 hr post tumor transplantation for 14 days measured on day 14 (reference value: 7.12 +/- 0.95 g/dl); format: functional; conditions: route intraperitoneal
[16] = Antitumor activity against Mus musculus (mouse) DLA cells transplanted in Swiss albino mouse assessed as increase in RBC count at 20 mg/kg, ip qd administered 24 hr post tumor transplantation for 14 days measured on day 14 (reference value: 2.46 +/- 0.45 million/mm3); format: functional; conditions: route intraperitoneal
[17] = Antitumor activity against Mus musculus (mouse) DLA cells transplanted in Swiss albino mouse assessed as increase in life span at 20 mg/kg, ip qd administered 24 hr post tumor transplantation for 14 days measured on day 14 (reference value: 50%); format: functional; conditions: route intraperitoneal
[18] = Antitumor activity against Mus musculus (mouse) DLA cells transplanted in Swiss albino mouse assessed as decrease in aspartate amino transferase level at 20 mg/kg, ip qd administered 24 hr post tumor transplantation for 14 days measured on day 14 (reference value: 85.6 +/- 2.72 U/L); format: functional; conditions: route intraperitoneal
[19] = Antitumor activity against Mus musculus (mouse) DLA cells transplanted in Swiss albino mouse assessed as decrease in packed cell volume at 20 mg/kg, ip qd administered 24 hr post tumor transplantation for 14 days measured on day 14 (reference value: 30.55 +/- 3.52%); format: functional; parameters: scale not given: the % may be the effect or the level left; conditions: route intraperitoneal
[20] = Antitumor activity against Mus musculus (mouse) DLA cells transplanted in Swiss albino mouse assessed as increase in platelet count at 20 mg/kg, ip qd administered 24 hr post tumor transplantation for 14 days measured on day 14 (reference value: 1.6 +/- 0.52 lakhs/mm3); format: functional; conditions: route intraperitoneal
[21] = Antitumor activity against Mus musculus (mouse) DLA cells transplanted in Swiss albino mouse assessed as decrease in total WBC count measured 10^3 cells at 20 mg/kg, ip qd administered 24 hr post tumor transplantation for 14 days measured on day 14 (reference value: 14.40 +/- 2.5 ml); format: functional; conditions: route intraperitoneal
[22] = Antitumor activity against Mus musculus (mouse) DLA cells transplanted in Swiss albino mouse assessed as decrease in alkaline phosphatase level at 20 mg/kg, ip qd administered 24 hr post tumor transplantation for 14 days measured on day 14 (reference value: 242.22 +/- 4.3 U/L); format: functional; conditions: route intraperitoneal
[23] = Antitumor activity against Mus musculus (mouse) DLA cells transplanted in Swiss albino mouse assessed as decrease in triglyceride level at 20 mg/kg, ip qd administered 24 hr post tumor transplantation for 14 days measured on day 14 (reference value: 210.12 +/- 4.65 mg/dl); format: functional; conditions: route intraperitoneal
[24] = Antitumor activity against Mus musculus (mouse) DLA cells transplanted in Swiss albino mouse assessed as decrease in alanine amino transferase level at 20 mg/kg, ip qd administered 24 hr post tumor transplantation for 14 days measured on day 14 (reference value: 61.2 +/- 2.6 U/L); format: functional; conditions: route intraperitoneal
[25] = Antitumor activity against Mus musculus (mouse) DLA cells transplanted in Swiss albino mouse assessed as decrease in body weight at 20 mg/kg, ip qd administered 24 hr post tumor transplantation for 14 days measured on day 14 (reference value: 7.6 +/- 0.94 g); format: functional; conditions: route intraperitoneal
[26] = Antitumor activity against Mus musculus (mouse) DLA cells transplanted in Swiss albino mouse assessed as decrease in cholesterol level at 20 mg/kg, ip qd administered 24 hr post tumor transplantation for 14 days measured on day 14 (reference value: 140.86 +/- 4.6 mg/dl); format: functional; conditions: route intraperitoneal
[27] = Antitumor activity against Mus musculus (mouse) DLA cells transplanted in Swiss albino mouse assessed as decrease in cancer cell count measured 10^6 cells at 20 mg/kg, ip qd administered 24 hr post tumor transplantation for 14 days measured on day 14 (reference value: 2.76 +/- 0.33 ml); format: functional, Cancer cell lines; conditions: route intraperitoneal

Row | SMILES | ED50 [1] | Activity [2] | Activity [3] | Activity [4] | Activity [5] | Activity [6] | Activity [7] | Activity [8] | Activity [9] | Activity [10] | Activity [11] | Activity [12] | Activity [13] | Activity [14] | also measured
1 | O=C1NC(=O)C(=C(/C=C/c2ccccc2)c2nc3ccccc3[nH]2)C(=O)N1 | 50 mg/kg | 66% | 6.45 g | 13.8 | 9.3 g/dL | 136.45 mg/dL | 1.99 ×10⁵ /mm3 | 77.6 U/L | 186.85 mg/dL | 2.26 mL | 24.1% | 232.32 U/L | 2.9 million/mm3 | 57.3 U/L | 
2 | O=C1NC(=O)C(=C(/C=C/c2cccc([N+](=O)[O-])c2)c2nc3ccccc3[nH]2)C(=O)N1 | 50 mg/kg | 76% | 5.88 g | 12.45 | 10.5 g/dL | 122.3 mg/dL | 2.3 ×10⁵ /mm3 | 72.6 U/L | 168.7 mg/dL | 1.88 mL | 20.48% | 202.85 U/L | 3.3 million/mm3 | 53.42 U/L | 
3 | COc1ccc(/C=C/C(=C2C(=O)NC(=O)NC2=O)c2nc3ccccc3[nH]2)cc1 | 50 mg/kg | 72% | 6.3 g | 12.55 | 10.28 g/dL | 126.35 mg/dL | 2.12 ×10⁵ /mm3 | 75.62 U/L | 170.6 mg/dL | 1.96 mL | 22.9% | 218.26 U/L | 3.15 million/mm3 | 53.52 U/L | 
4 | O=C1NC(=O)C(=C(/C=C/c2ccccc2O)c2nc3ccccc3[nH]2)C(=O)N1 | 50 mg/kg | 69% | 5.43 g | 13.45 | 10.1 g/dL | 131.3 mg/dL | 2.05 ×10⁵ /mm3 | 75.4 U/L | 178.7 mg/dL | 2.03 mL | 23.68% | 229.15 U/L | 2.8 million/mm3 | 56.42 U/L | 
5 | O=C1NC(=O)C(=C(/C=C/c2ccc(Cl)cc2)c2nc3ccccc3[nH]2)C(=O)N1 | 50 mg/kg | 70% | 6.6 g | 12.7 | 10.3 g/dL | 129.32 mg/dL | 2.1 ×10⁵ /mm3 | 76.52 U/L | 182.5 mg/dL | 2.12 mL | 23.1% | 223.36 U/L | 3.1 million/mm3 | 55.6 U/L | 
6 | CN(C)c1ccc(/C=C/C(=C2C(=O)NC(=O)NC2=O)c2nc3ccccc3[nH]2)cc1 | 50 mg/kg | 74% | 5.9 g | 12.5 | 10.42 g/dL | 124.3 mg/dL | 2.22 ×10⁵ /mm3 | 73.4 U/L | 172.4 mg/dL | 1.9 mL | 22.42% | 210.21 U/L | 3.25 million/mm3 | 51.45 U/L | 
7 | O=c1[nH]cc(F)c(=O)[nH]1 [FLUOROURACIL] |  |  |  |  |  |  |  |  |  |  |  |  |  |  | Activity [15]: 11.5 g/dL; Activity [16]: 4.1 million/mm3; Activity [17]: 94%; Activity [18]: 56.3 U/L; Activity [19]: 17.45%; Activity [20]: 2.65 ×10⁵ /mm3; Activity [21]: 11.3 mL; Activity [22]: 162.3 U/L; Activity [23]: 156.42 mg/dL; Activity [24]: 42.45 U/L; Activity [25]: 3.7 g; Activity [26]: 112.52 mg/dL; Activity [27]: 1.3 mL
